For series [1], the system named is tumour models including colorectal tumour models. Particulars: preclinical studies; broad spectrum of tumour models including colorectal; mediated by antiangiogenic and antiproliferative effects; cited from earlier work.
The conditions of series [2]: background description of the drug substance; cited from earlier work.
The conditions of series [3]: cited from earlier work.
The nature of series [4]: Stability on handling and storage of crystalline forms. Conditions: without any significant or measurable change in morphology and physicochemical characteristics.
Description: (§1) The merit of the process according to the present invention resides in that product isolated after drying is directly obtained as crystalline Form I of Regorafenib (I). Said material is found devoid of any other crystal lattice and is adequately stable to handle and store for longer time (at least up to more than 6 months) without any significant or measurable change in its morphology and physicochemical characteristics. Crystalline Form I of Regorafenib (I) obtained according to the process of the present invention results in the final API purity by of more than 99.5% w/w, and found to be anhydrous with moisture content of not more than 0.5%.
as §1, with “Form III” for “Form I”, “by HPLC” for “by”

The values that follow come from patent publication US9790185B2, “Process for the preparation of regorafenib and its crystalline forms” (SHILPA MEDICARE LIMITED, priority 2014, dated 2017).

Like-named read-outs stand apart in the source and are kept apart here.

As to `CNC(=O)c1cc(Oc2ccc(NC(=O)Nc3ccc(Cl)c(C(F)(F)F)c3)c(F)c2)ccn1` [Regorafenib, 4-[4-({[4-chloro-3-(trifluoromethyl)phenyl]carbamoyl}amino)-3-fluorophenoxy]-N-methylpyridine-2-carboxamide], the antitumour activity entry in series [1] was “demonstrated antitumour activity”. Besides, the hygroscopicity entry in series [2] is “not hygroscopic”. Further, the solubility result in series [3] (in 2-propanol) is “slightly soluble”; in series [3] (in PEG 400 (macrogol)) it was “soluble”; in series [3] (in acetone) it was “sparingly soluble”; in series [3] (in acetonitrile) it was “slightly soluble”; in series [3] (in dichloromethane) it was “slightly soluble”; in series [3] (in dilute acid solution), “practically insoluable”. The solubility entry in series [3] (in dilute alkaline solution) is “practically insoluable”; in series [3] (in ethanol) it was “slightly soluble”; in series [3] (in ethyl acetate) it was “slightly soluble”; in series [3] (in glycerine), “practically insoluable”; in series [3] (in methanol) it was “slightly soluble”; in series [3] (in n-heptane), “practically insoluable”. For the same compound, the figures for the solubility result in series [3] (in propylene glycol), in series [3] (in toluene) and in series [3] (in water) were “slightly soluble”, “practically insoluable” and “practically insoluable”, respectively.

As for `CNC(=O)c1cc(Oc2ccc(NC(=O)Nc3ccc(Cl)c(C(F)(F)F)c3)c(F)c2)ccn1` [crystalline Form I of Regorafenib (I), 4-[4-({[4-chloro-3-(trifluoromethyl)phenyl]carbamoyl}amino)-3-fluorophenoxy]-N-methylpyridine-2-carboxamide], in series [4], the “time adequately stable to handle and store” value is given as “more than 6 months”.
